What was measured:
Carboxypeptidase A1 = target: T1, Carboxypeptidase A1 (Bos taurus, UniProt P00730); assay: Inhibitory constant of carboxypeptidase A (CPA) in absence of Zinc ion.
T1 sequence (P00730 whole entry): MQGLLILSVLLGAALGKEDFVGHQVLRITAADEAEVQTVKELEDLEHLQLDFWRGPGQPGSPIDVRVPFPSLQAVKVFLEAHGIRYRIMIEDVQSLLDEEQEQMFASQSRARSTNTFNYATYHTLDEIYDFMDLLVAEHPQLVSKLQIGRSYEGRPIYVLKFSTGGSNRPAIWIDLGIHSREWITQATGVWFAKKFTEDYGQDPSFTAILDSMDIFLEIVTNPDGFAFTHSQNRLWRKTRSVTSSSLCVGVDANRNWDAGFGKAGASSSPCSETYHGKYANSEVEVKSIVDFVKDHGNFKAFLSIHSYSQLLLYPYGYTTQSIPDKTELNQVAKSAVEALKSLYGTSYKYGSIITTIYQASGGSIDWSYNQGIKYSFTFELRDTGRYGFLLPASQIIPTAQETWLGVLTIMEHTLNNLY

[1] = target: T2, Carboxypeptidase A1 (Bos taurus) (UniProt P00730); assay: Cooperative effect of the inhibitory zinc ion in the inhibition of CPA by the compound
T2 sequence (whole entry): T1 sequence (P00730 whole entry)

[2] = target: T2, Carboxypeptidase A1 (Bos taurus); assay: Apparent inhibitory constant of carboxypeptidase A (CPA) in presence of Zinc ion
[3] = Extent of enhancement of inhibitory potency of compound against carboxypeptidase A caused by zinc ion.

With `O=C(O)C(Cc1ccccc1)c1cnc[nH]1` (stereo unspecified) the Ki (Carboxypeptidase A1) was 0.26 µM.
For `O=C(O)C(Cc1ccccc1)c1c[nH]cn1` (stereo unspecified), the Cooperative effect [1] was 1.88, the K'i [2] was 0.49 µM and the Ki/K'i [3] was 0.53.
For `O=C(O)C(Cc1ccccc1)Cc1c[nH]cn1` (stereo unspecified), the Cooperative effect [1] was 0.0047, the Ki (Carboxypeptidase A1) was 214 µM and the K'i [2] was 1.01 µM. It also gave a Ki/K'i [3] of 212.
For `O=C(O)C(CCCc1c[nH]cn1)Cc1ccccc1` (stereo unspecified), the Cooperative effect [1] was 0.024, the K'i [2] was 18 µM and the Ki/K'i [3] was 41.7.
`O=C(O)C(CCc1c[nH]cn1)Cc1ccccc1` (stereo unspecified) showed a Cooperative effect [1] of 0.0056, a Ki (Carboxypeptidase A1) of 15 µM and a K'i [2] of 0.29 µM. The Ki/K'i [3] was 51.7.
`O=C(O)C(CCCc1cnc[nH]1)Cc1ccccc1` (stereo unspecified) showed a Ki (Carboxypeptidase A1) of 750 µM.
